A short description of data set [1]: Clearance in Sprague-Dawley rat at 1 mg/kg, iv. Also on record: dose 1 mg/kg, route intravenous. Conditions: in vivo. The class given is ADME, organism-based.
The nature of data set [2]: AUC (0-infinity) in Sprague-Dawley rat at 1 mg/kg, iv. Conditions: plasma. The arrangement: time infinity, dose 1 mg/kg, route intravenous. In kind it is ADME, organism-based.
Data set [3] can be described thus: Volume of distribution at steady state in Sprague-Dawley rat at 1 mg/kg, iv. In kind it is ADME, organism-based. The arrangement: dose 1 mg/kg, route intravenous. The conditions noted are these: in vivo, read-out: Vss.
Data set [4] can be described thus: Half life in Sprague-Dawley rat at 1 mg/kg, iv. The class given is ADME, organism-based. Also on record: dose 1 mg/kg, route intravenous. The conditions noted are these: in vivo.
A short description of data set [5]: Solubility in simulated intestinal fluid by high-throughput automated format. The class given is physicochemical.
Data set [6] is described as follows: Bioavailability in fasted Sprague-Dawley rat at 5 mg/kg, po. In kind it is ADME, organism-based. Conditions: in vivo.
Data set [7] is described as follows: In vivo clearance in Sprague-Dawley rat at 1 mg/kg, iv. The class given is ADME, organism-based. Also on record: dose 1 mg/kg, route intravenous.
A short description of data set [8]: Metabolic stability in human liver microsomes assessed as clearance. In kind it is ADME, Microsome. A general note: Microsomes from liver hold many membrane-bound enzymes, among them those of drug oxidation.
Data set [9] in a line: Aqueous solubility in hydrochloric acid by high-throughput automated format. The class given is physicochemical.
Data set [10] concerns the target T1, Transient receptor potential cation channel subfamily V member 1 (Homo sapiens, UniProt Q8NER1). Nature of the data set: Antagonist activity at human TRPV1 expressed in CHO cells assessed as inhibition of acid-induced calcium influx. In kind it is functional, cell-based.
Data set [11] deals with T1, Transient receptor potential cation channel subfamily V member 1. The data set can be described thus: Antagonist activity at human TRPV1 expressed in CHO cells assessed as inhibition of capsaicin-induced calcium influx. In kind it is functional, cell-based.
The nature of data set [12]: Metabolic stability in rat liver microsomes assessed as clearance. The class given is ADME, Microsome.
Data set [13] is described as follows: Solubility in PBS by high-throughput automated format. The class given is physicochemical.
The target in data set [14] is T1, Transient receptor potential cation channel subfamily V member 1. Nature of the data set: Antagonist activity at human TRPV1 expressed in CHO cells assessed as inhibition of heat-induced calcium influx. The class given is functional, cell-based.
Data set [15] deals with T2, Transient receptor potential cation channel subfamily V member 1 (Rattus norvegicus, UniProt O35433). The data set can be described thus: Antagonist activity at rat TRPV1 expressed in CHO cells assessed as inhibition of acid-induced calcium influx. In kind it is functional, cell-based.
The target of data set [16] is T2, Transient receptor potential cation channel subfamily V member 1. Nature of the data set: Antagonist activity at rat TRPV1 expressed in CHO cells assessed as inhibition of capsaicin-induced calcium influx. In kind it is functional, cell-based.
Data set [17] is described as follows: Half life in rat. Conditions: in vivo. The class given is ADME, organism-based.
The nature of data set [18]: AUC (0 to infinity) in rat at 1 mg/kg, iv. The arrangement: time infinity, dose 1 mg/kg, route intravenous. The conditions noted are these: plasma. The class given is ADME, organism-based.
Data set [19] can be described thus: Half life in rat at 1 mg/kg, iv. Also on record: dose 1 mg/kg, route intravenous. The conditions noted are these: in vivo. The class given is ADME, organism-based.
In data set [20] the test system is Rattus norvegicus. Nature of the data set: Inhibition of CFA-induced paw thermal hyperalgesia in po dosed Sprague-Dawley rat. The class given is functional. The conditions noted are these: read-out: MED.
The nature of data set [21]: Volume of distribution at steady state in dog at 1 mg/kg, iv. The class given is ADME, organism-based, Canis lupus familiaris. The arrangement: dose 1 mg/kg, route intravenous. Conditions: in vivo, read-out: Vss.
Data set [22] can be described thus: Clearance in rat at 1 mg/kg, iv. Conditions: in vivo. Also on record: dose 1 mg/kg, route intravenous. In kind it is ADME, organism-based.
Data set [23] is described as follows: Clearance in monkey at 1 mg/kg, iv. Conditions: rhesus monkey, in vivo. Also on record: dose 1 mg/kg, route intravenous. The class given is ADME, organism-based, Macaca mulatta.
Data set [24] deals with Rattus norvegicus. Nature of the data set: Inhibition of CFA-induced paw thermal hyperalgesia in Sprague-Dawley rat at 10 mg/kg, po relative to control. In kind it is functional. The arrangement: scale not given: the % may be the effect or the level left.
Data set [25] in a line: Volume of distribution at steady state at 1 mg/kg, iv. In kind it is ADME, organism-based. The arrangement: dose 1 mg/kg, route intravenous. Conditions: rat, in vivo, read-out: Vss.
The nature of data set [26]: Bioavailability in rat at 1 mg/kg, po. The class given is ADME, organism-based. Conditions: in vivo.
Data set [27] can be described thus: Bioavailability in fasted Sprague-Dawley rat at 3 mg/kg, po. The class given is ADME, organism-based. Conditions: in vivo.
The test system of data set [28] is Rattus norvegicus. The data set can be described thus: Inhibition of capsaicin-induced flinching in Sprague-Dawley rat at 3 mg/kg, po upto 24 hrs. In kind it is functional, organism-based. The arrangement: dose 3 mg/kg.
Data set [29] in a line: AUC (0-infinity) in dog at 1 mg/kg, iv. In kind it is ADME, organism-based, Canis lupus familiaris. Conditions: plasma. The arrangement: dose 1 mg/kg, route intravenous, time infinity.
A short description of data set [30]: Half life in monkey at 1 mg/kg, iv. The class given is ADME, organism-based, Macaca mulatta. Also on record: dose 1 mg/kg, route intravenous. Conditions: rhesus monkey, in vivo.
The nature of data set [31]: Bioavailability in dog at 1 mg/kg, po. The conditions noted are these: in vivo. In kind it is ADME, organism-based, Canis lupus familiaris.
The nature of data set [32]: AUC (0-infinity) in monkey at 1 mg/kg, iv. In kind it is ADME, organism-based, Macaca mulatta. The arrangement: time infinity, dose 1 mg/kg, route intravenous. Conditions: rhesus monkey, plasma.
Data set [33] is described as follows: Volume of distribution at steady state in monkey at 1 mg/kg, iv. In kind it is ADME, organism-based, Macaca mulatta. The arrangement: dose 1 mg/kg, route intravenous. Conditions: rhesus monkey, in vivo, read-out: Vss.
The subject of data set [34] is Rattus norvegicus. Nature of the data set: Efficacy in capsaicin-induced flinching in po dosed Sprague-Dawley rat. In kind it is functional.
The nature of data set [35]: Half life in dog at 1 mg/kg, iv. The class given is ADME, organism-based, Canis lupus familiaris. Also on record: dose 1 mg/kg, route intravenous. Conditions: in vivo.
A short description of data set [36]: Clearance in dog at 1 mg/kg, iv. In kind it is ADME, organism-based, Canis lupus familiaris. Also on record: dose 1 mg/kg, route intravenous. Conditions: in vivo.
Data set [37] in a line: Bioavailability in monkey at 1 mg/kg, po. The conditions noted are these: rhesus monkey, in vivo. The class given is ADME, organism-based, Macaca mulatta.
Data set [38] relates to Rattus norvegicus. The data set can be described thus: Blockade of capsaicin-induced hypothermia in rat at 3 mg/kg, po by telemetry model. The class given is functional.

Converted amounts (≈) assume the structure as drawn. The source made the active and inactive calls. The calls are words filed in the database; no cut-off is given here. Some results are limits rather than exact numbers.

T1 sequence (Q8NER1 whole entry): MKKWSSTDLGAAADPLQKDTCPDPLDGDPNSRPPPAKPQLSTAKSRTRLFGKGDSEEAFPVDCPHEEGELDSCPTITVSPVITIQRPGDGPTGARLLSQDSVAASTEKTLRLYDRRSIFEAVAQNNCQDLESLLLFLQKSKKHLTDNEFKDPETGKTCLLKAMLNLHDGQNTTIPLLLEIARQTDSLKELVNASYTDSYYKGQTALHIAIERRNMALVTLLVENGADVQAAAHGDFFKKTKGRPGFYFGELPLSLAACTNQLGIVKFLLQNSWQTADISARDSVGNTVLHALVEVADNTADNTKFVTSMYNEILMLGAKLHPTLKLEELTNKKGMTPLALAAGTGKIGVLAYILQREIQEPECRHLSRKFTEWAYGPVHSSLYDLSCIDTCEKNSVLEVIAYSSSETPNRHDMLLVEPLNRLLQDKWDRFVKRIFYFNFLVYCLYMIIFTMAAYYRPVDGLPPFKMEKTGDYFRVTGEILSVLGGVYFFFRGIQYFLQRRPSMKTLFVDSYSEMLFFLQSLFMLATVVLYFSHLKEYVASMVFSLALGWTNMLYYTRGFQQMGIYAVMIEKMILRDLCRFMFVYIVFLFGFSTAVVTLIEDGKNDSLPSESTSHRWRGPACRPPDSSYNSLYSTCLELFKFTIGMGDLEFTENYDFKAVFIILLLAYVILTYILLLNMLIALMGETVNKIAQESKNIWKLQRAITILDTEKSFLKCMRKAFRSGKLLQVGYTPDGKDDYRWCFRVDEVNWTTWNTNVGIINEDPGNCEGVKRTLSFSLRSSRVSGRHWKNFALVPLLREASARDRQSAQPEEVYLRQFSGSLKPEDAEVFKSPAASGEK
T2 sequence (O35433 whole entry): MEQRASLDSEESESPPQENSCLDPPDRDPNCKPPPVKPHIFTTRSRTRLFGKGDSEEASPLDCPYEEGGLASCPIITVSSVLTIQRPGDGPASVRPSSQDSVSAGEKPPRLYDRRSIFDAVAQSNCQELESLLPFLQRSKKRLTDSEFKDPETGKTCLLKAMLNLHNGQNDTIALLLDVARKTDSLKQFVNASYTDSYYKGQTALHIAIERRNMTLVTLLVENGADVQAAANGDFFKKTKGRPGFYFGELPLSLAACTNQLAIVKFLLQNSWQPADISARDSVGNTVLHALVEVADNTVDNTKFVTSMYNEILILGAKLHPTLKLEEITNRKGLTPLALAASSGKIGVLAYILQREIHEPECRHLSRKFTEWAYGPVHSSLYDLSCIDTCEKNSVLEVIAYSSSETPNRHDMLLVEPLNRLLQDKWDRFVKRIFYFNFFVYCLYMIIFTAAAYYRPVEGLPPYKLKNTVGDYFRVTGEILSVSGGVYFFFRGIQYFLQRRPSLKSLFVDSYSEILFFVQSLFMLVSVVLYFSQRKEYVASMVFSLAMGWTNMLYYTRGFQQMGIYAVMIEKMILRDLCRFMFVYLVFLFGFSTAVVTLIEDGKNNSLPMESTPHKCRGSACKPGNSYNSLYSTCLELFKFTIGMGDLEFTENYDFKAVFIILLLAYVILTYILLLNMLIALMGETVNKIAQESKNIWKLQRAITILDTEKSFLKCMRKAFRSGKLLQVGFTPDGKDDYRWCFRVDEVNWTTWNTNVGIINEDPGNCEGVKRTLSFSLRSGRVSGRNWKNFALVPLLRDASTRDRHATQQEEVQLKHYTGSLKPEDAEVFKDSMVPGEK

As a reminder, the clearance is the volume of plasma or blood freed of the substance per unit of time. Usually AUC(0-inf) stands for total exposure, with the tail of the curve extrapolated. For orientation: half-life means how long it takes for the measured level to halve. As a reminder, the solubility is how much of the substance goes into solution per volume. As usually defined, the bioavailability is the share of a dose that reaches the circulation, judged against a reference dose that is usually intravenous. As a reminder, the microsomal CLint is the rate of metabolic loss divided by the concentration. A word on the IC50: it is the concentration at which inhibition is half-maximal. Take `Nc1nc2c(Oc3cc(-c4ccc(C(F)(F)F)cc4)ncn3)cccc2[nH]c1=O`: the results for the clearance in data set [1] and in data set [7] were 3.28 mL/min/kg and 4.33 mL/min/kg, respectively. In data set [2], this molecule had an area under the curve AUC(0-inf) of 5140 ng·h/mL. For the same molecule, the Vd in [3] was determined as 1.69 L/kg. The molecule further had a half-life in [4] of 6 h. The solubility was 9.2 µg/mL (≈ 23 µM) in [5], less than 1 µg/mL in [9] and less than 1 µg/mL in data set [13]. In [6], this molecule registered a bioavailability of 7%. Also, the microsomal CLint in data set [8] and in data set [12] was less than 14 µL/min/mg in each case. In addition, the IC50 in [10] worked out at 0.9 nM; in data set [11], 0.8 nM; in data set [14] it was 0.4 nM.

For `Nc1nc2c(Oc3cc(-c4ccc(C(F)(F)F)cc4)ncn3)cccc2s1`, the clearance in data set [7] was 3.67 mL/min/kg. The values for the IC50 in [15] and in data set [16] were greater than 4000 nM and 1.2 nM, respectively. Further, the results for the microsomal CLint in data set [8] and in [12] were less than 5 µL/min/mg and 47 µL/min/mg, respectively.

As for `O=c1ccc2cccc(Oc3cc(-c4ccc(C(F)(F)F)cc4)ncn3)c2[nH]1`, the IC50 in data set [15] and in data set [16] was greater than 4000 nM in each case.

Consider `FC(F)(F)c1ccc(-c2cc(Oc3ccc4ccccc4n3)ncn2)cc1`, for which the IC50 in data set [15] is greater than 4000 nM.

Molecule `FC(F)(F)c1ccc(-c2cc(Oc3ccc4cccnc4c3)ncn2)cc1` gave a half-life in data set [17] of 2.8 h.

With `CCC(=O)Nc1nc2c(Oc3cc(-c4ccc(C(F)(F)F)cc4)ncn3)cccc2s1`, the IC50 in data set [15] was 1500 nM.

For `FC(F)(F)c1ccc(-c2cc(Oc3ccc4ccncc4c3)ncn2)cc1`, the IC50 in data set [15] was greater than 4000 nM; in [16] it was 460 nM.

What is called ED50 is the dose at which the effect has come halfway, by size or by number of responders. As for `CC(=O)Nc1nc2c(Oc3cc(-c4ccc(C(F)(F)F)cc4)ncn3)cccc2s1` [AMG-517], the clearance in [1] is 3.17 mL/min/kg; in data set [7], 4.17 mL/min/kg; in [22], 2 mL/min/kg; in [23], 0.5 mL/min/kg; in data set [36] it was 2.33 mL/min/kg. The AUC(0-inf) in [2] stood at 5400 ng·h/mL; in data set [18] it was 8800 ng·h/mL; in data set [29] it was 7400 ng·h/mL; in [32], 37000 ng·h/mL. Also, the Vd turned out to be 1.56 L/kg in data set [3], 7 L/kg in [21], 4 L/kg in data set [25] and 2.3 L/kg in data set [33]. The half-life was 6.3 h in [4], 31 h in data set [19], 62 h in [30] and 41 h in data set [35]. The figures for the solubility in data set [5], in data set [9] and in [13] were 6.6 µg/mL (≈ 15.3 µM), less than 1 µg/mL and less than 1 µg/mL, respectively. Moreover, the minimal effective dose in data set [20] worked out at 0.83 mg/kg. For the same molecule, the Activity in data set [24] amounted to 35%. Also, the figures for the microsomal CLint in data set [8] and in data set [12] were less than 5 µL/min/mg and 50 µL/min/mg, respectively. Further, the bioavailability was determined as 51% in [26], 32% in data set [27], 23% in data set [31] and 52% in data set [37]. Further, the figures for the 50% inhibitory concentration (IC50) in [10], in data set [11] and in data set [14] were 0.62 nM, 0.76 nM and 1.3 nM, respectively. For the same molecule, the result in data set [28] was Active. For the same molecule, in [34], the median effective dose (ED50) is 0.35 mg/kg.

In the case of `FC(F)(F)c1ccc(-c2cc(Oc3ccnc4ccccc34)ncn2)cc1`, the IC50 in data set [15] and in data set [16] was greater than 4000 nM in each case.

For `CC(=O)N(C)c1nc2c(Oc3cc(-c4ccc(C(F)(F)F)cc4)ncn3)cccc2s1`, the IC50 in data set [15] is 860 nM; in data set [16] it was greater than 4000 nM.

Consider `Nc1cnc2cccc(Oc3cc(-c4ccc(C(F)(F)F)cc4)ncn3)c2n1`, for which, in data set [7], the clearance was 71.7 mL/min/kg. For the same molecule, the IC50 in [15] turned out to be 16 nM; in data set [16], 63 nM. Moreover, the microsomal CLint in [8] is less than 14 µL/min/mg; in data set [12] it was 15 µL/min/mg. This molecule also yielded an Activity in data set [38] of 100%.
